Patent US11919854B2, “P2RX7 modulators in therapy” (Centre national de la recherche scientifique, priority 2018, dated 2024)
“Also recorded” adds a separate entry of the source.

Legend:
mouse P2RX7 (mP2RX7) = target: T1, mouse P2RX7 (mP2RX7) (Mus musculus, UniProt Q9Z1M0); assay: Channel activity (Fluo4-AM) and large pore opening (Topro3) by flow cytometry, HEK cells expressing mP2RX7, 1 h BzATP; format: cell-based
T1 construct: expressed in transfected cells; host or cells: HEK cells
T1 sequence (Q9Z1M0 1-595): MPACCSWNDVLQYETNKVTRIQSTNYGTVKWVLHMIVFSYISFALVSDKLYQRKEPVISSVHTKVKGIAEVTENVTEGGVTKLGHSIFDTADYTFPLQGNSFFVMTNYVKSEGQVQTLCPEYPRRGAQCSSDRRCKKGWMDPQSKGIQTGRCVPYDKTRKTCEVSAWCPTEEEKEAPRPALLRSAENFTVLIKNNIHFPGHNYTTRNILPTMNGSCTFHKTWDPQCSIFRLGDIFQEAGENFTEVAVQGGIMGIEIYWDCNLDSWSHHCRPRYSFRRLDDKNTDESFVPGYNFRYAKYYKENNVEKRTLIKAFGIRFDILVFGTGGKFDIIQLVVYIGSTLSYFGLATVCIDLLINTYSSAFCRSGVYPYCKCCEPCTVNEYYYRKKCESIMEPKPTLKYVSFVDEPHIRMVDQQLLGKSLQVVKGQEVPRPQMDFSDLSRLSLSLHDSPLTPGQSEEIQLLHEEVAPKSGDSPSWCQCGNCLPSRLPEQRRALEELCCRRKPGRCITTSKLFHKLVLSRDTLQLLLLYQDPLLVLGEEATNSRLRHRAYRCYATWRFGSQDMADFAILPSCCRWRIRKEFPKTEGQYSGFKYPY
Protocol: Calcium channel activity (Fluo4AM probe) and large pore opening (Topro3 probe) were analysed by FACS on mP2RX7 HEK cells. Cells were non stimulated (NS) or treated with BzATP (500 μM) alone or in the presence of HEI2314, HEI2328, HEI2333 or HEI2336 (used at 50 μM).
Calcium channel activity (Fluo4AM probe) and large pore opening (Topro3 probe) were analysed by FACS on mock and mP2RX7 HEK cells. Cells were non stimulated (NS) or treated with BzATP (500 μM) alone or in the presence of HEI2328 used at 50 μM.
2.1. […] Cation channel activity is assayed with the Fluo4 AM (Invitrogen) probe and opening of large pore with Topro3 (Invitrogen). In each experiment 2×10^6 cells were incubated with 50 nM Fluo4-AM for 30 minutes. After washing, cells were treated with 500 μM BzATP (3′-O-(4-benzoyl)benzoyl ATP) for 1 h, or non-treated, in presence of the compounds of the invention at 50 μM. When indicated, the Topro3 probe (8.5 nM) was added during the 1 h stimulation time. Fluorescence was assayed by flow cytometry.

LLC = LLC tumor growth, HEI3090 combined with anti-PD-1 checkpoint inhibitor; format: in vivo, C57BL6J mice
Protocol: b-g Effect of HEI3090 and anti PD-1 checkpoint inhibitor on LLC tumor growth. 5.105 LLC were injected s.c. into the flank of C57BL6J mice. Mice were treated i.p. with vehicle (PBS, 10% DMSO) or with HEI3090 (1.5 mg/kg in PBS, 10% DMSO) from day 1 to day 18. Each mouse received 200 μg of anti PD-1 i.p. at day 4.7.10.13 and 16. Tumor sizes were measured from day 1 to day 90. Mice were sacrificed when tumor reached 100 mm2. For contralateral re-challenge, cured mice or naive age matched C57BL6J mice were injected s.c. in the opposite flank with 2.105 LLC. At day 150, re-challenged treated mice or C57BL/6J naive mice were sacrificed to sort CD8+ T cells. 2.105 CD8+ T cells were adoptively transferred in other C57BL6J naive mice. Then mice were injected s.c with 2.105 LLC (b). Spaghetti plots of LLC tumor growth of vehicle and anti-PD-1 treated mice or HEI3090 and anti-PD-1 treated mice (c). Each curve represents one mouse. Survival curves of mice treated with vehicle or HEI3090 and isotype control or vehicle or HEI3090 and anti-PD-1 (d). Tumor growth and survival curves after re-challenge of cured mice treated with HEI3090 and anti-PD-1 or age matched C57BL/6J mice (e,f). Tumor growth after i.v. injection of CD8+ T cells from naïve mice or re-challenged treated mice (g).

human P2RX7 = target: T2, human P2RX7 (Homo sapiens, UniProt Q99572); assay: Calcium influx and large cation permeation by FACS, 15 min, HEK cells with human P2RX7, increasing doses of HEI3090; format: cell-based; settings: increasing doses of HEI3090, 7.8 μM BzATP
T2 construct: expressed in transfected cells; host or cells: HEK cells
T2 sequence (Q99572 1-595): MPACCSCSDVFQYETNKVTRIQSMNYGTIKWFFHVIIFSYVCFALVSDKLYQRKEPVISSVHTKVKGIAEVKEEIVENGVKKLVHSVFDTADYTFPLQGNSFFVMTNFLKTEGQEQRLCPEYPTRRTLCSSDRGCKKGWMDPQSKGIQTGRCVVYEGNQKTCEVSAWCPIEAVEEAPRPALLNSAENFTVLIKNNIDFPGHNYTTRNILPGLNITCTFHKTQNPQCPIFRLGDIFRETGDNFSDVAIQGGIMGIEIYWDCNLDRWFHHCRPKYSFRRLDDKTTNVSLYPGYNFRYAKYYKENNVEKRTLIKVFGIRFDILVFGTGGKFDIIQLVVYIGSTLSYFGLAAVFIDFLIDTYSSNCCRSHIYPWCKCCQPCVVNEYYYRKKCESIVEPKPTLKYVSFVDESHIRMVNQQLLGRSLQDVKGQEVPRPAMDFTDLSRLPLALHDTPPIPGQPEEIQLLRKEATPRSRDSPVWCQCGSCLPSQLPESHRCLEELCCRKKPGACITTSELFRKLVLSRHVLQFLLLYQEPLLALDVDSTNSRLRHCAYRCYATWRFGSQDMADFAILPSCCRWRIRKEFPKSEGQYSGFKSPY
Protocol: Calcium influx (Fluo-AM positive cells) and large cation permeation (Topro3 positive cells) were assayed by FACS 15 min after stimulation of HEK cells transfected with the human P2RX7 that were treated with increasing doses of HEI3090 in the presence of 7.8 μM BzATP.
Complementary analyses were also performed to document the biological activity of HEI3090, the more soluble version of HEI2328, on both HEK cells expressing mouse P2RX7 (mP2RX7) (FIG. 14) or human P2RX7 (hP2RX7) (FIG. 15). BzATP or ATP stimulate channel activity, an event that occurred in the first minutes of P2RX7 stimulation. […] The same positive effect was observed on cells expressing human P2RX7 (FIG. 15).

[1] = test system: NCI panel of 60 tumor cell lines; assay: Toxicity on NCI panel of 60 tumor cell lines; format: cell-based; settings: HEK cell lines stably transfected with hP2RX7 or mP2RX7 and NCI panel of 60 human tumor cell lines
Source text: Toxicity of HEI_2333 and HEI_2336 was already tested on the NCI panel of 60 tumor cell lines (NCI 60-cell panel).

| Compound | Topro3 positive cells (mouse P2RX7 (mP2RX7); HEI2328 50 μM combined with BzATP 500 μM, 1 h, mP2RX7 cells) [%] | channel activity (Fluo4-AM) (mouse P2RX7 (mP2RX7); combined with BzATP 500 μM, 1 h stimulation) | Topro3 entry (large pore opening) (mouse P2RX7 (mP2RX7); compound 50 μM, BzATP 500 μM, 1 h, mP2RX7 HEK cells) | channel activity and large pore opening, compound alone (mouse P2RX7 (mP2RX7); used alone (no BzATP) on Mock and mP2RX7 cells, 50 μM) | cure of tumor bearing mice (LLC; HEI3090 1.5 mg/kg ip day 1-18 combined with anti PD-1 200 μg ip) | memory T cell response (LLC; HEI3090 combined with anti PD-1, re-challenge of cured mice) | increase of Ca influx (Fluo-AM positive cells) (human P2RX7) [fold] | increase of large cation influx (Topro3 positive cells) (human P2RX7) [fold] | toxicity in absence of the endogenous P2RX7 ligand (ATP) [1] |
| --- | --- | --- | --- | --- | --- | --- | --- | --- | --- |
| O=C(NCc1ccc(Cl)cc1Cl)[C@@H]1CCC(=O)N1C(=O)Nc1ccc(Cl)c(Cl)c1 [HEI2328, (S)—N^2-(2,4-Dichlorobenzyl)-N^1-(3,4-dichlorophenyl)-5-oxopyrrolidine-1,2-dicarboxamide] | 61 | did not impact channel activity | increase Topro3 entry only in presence of BzATP; also recorded: most active | did induce neither channel activity nor large pore opening |  |  |  |  |  |
| O=C(NCc1ccc(Cl)cc1Cl)[C@@H]1CCC(=O)N1C(=O)Nc1ccc(Cl)nc1 [HEI3090, (S)—N^1-(6-Chloropyridin-3-yl)-N^2-(2,4-dichlorobenzyl)-5-oxopyrrolidine-1,2-dicarboxamide] |  |  |  |  | cured mice bearing tumors | set up a memory T cell response | 3 | 3 | non-toxic |
